From paper PMC6382874, “Succinylation-dependent mitochondrial translocation of PKM2 promotes cell survival in response to nutritional stress” (Cell Death & Disease, 2019)
Where two headings read alike, the source gives them in different places.

Columns and labels:
MCF7 cells = assay: cell viability test, MCF7; format: cell-based; conditions: cell viability, 48 h, read-out: IC50 (MCF7)
Method: We assessed the anti-tumor effects of compound 8 by evaluation of cancer cell viability. Compound 8 reduced cell viability with an IC50 of about 5 µM in MTT reduction assays in HCT116, MCF7, and H1299 cells (Table 2). […] To determine whether cancer cell death brought about by compound 8 is PKM2 dependent, PKM2 was knocked down in HCT116 cells using two different shRNA sequences that specifically targeted exon 10 without interfering with PKM1 expression. Compound 8 is an inhibitor which causes a loss of function of PKM2. If PKM2 is a specially targeted by compound 8, its knockdown should render cells more vulnerable to compound 8-mediated PKM2 inhibition since shRNA and compound 8 work synergistically by reducing the intracellular drug target concentration.
Cells were seeded in 96-well plates at 5000 cells/well in DMEM media overnight. Cells were treated with different concentrations of test compound for 48 h at 37 °C in 5% CO2. Cell viability was assayed with the MTS assay (Promega) and trypan blue staining according to the manufacturer’s instructions.

[1] = tested on: outer mitochondrial membrane permeability; assay: NADH oxidation assay in mitochondria isolated from HCT116 cells; format: cell-based, human; conditions: 20 µM, 8 h
Method: Fig. 6 Compound 8 blocks PKM2 mitochondrial translocation under nutritional stress and inhibits tumor growth in vivo. a Compound 8 blocks glucose starvation induced PKM2 mitochondrial translocation. Isolation of mitochondria and immunoblot of PKM2, tubulin and Tom 40 were carried out with or without compound 8 treatment. b Compound 8 disrupts interaction of PKM2 and VDAC3. HCT116 cells were transfected with HA-tagged PKM2, cells were harvested and subjected to stag pull down after 8 h 20 µM compound 8 treatment. c Compound 8 induces VDAC3 for degradation. cells were harvested and evaluated VDAC3 protein levels after 8 h 10 or 20 µM compound 8 treatment. d, e Compound 8 caused a decrease in the rate of NADH oxidation. After 8 h of treatment with 20 µM compound 8, HCT116 cells mitochondria were isolated for NADH oxidation assays. NAD/NADH ratios in HCT116 cell lysates were evaluated by LC–MS. f Compound 8 inhibited ATP production in HCT116 cells. g The tumor volume (n = 7) of HCT116 xenografts from mice with intraperitoneal injection of compound 8 and vehicle control […]
NADH oxidation in the mitochondria was measured by resuspending mitochondria isolated from HCT116 cells after knockdown or overexpression of PKM2, K433E, K433R, PKM1, or treatment with 20 μM compound 8 for 8 h in 25 mM NADH. Absorbance was monitored at λ = 340 nm. […]

HCT116 xenografts = assay: HCT116 xenograft tumor growth in nude mice; format: in vivo, nude mice (BALB/C); conditions: 15mg/kg, intraperitoneal, once every two days
Method: All animal procedures were performed in accordance with guidelines approved by the Animal Experimentation Ethics Committee of Peking University. Female nude mice (BALB/C, 4–6 weeks old) were injected with 2.0 × 10^6 HCT116 cells subcutaneously in the armpit. Approximately, 10 days later, pairs of mice (N = 7) were injected with compound 8 or vehicle control. Intraperitoneal injection was performed in the mouse. The animals were injected once every two days. Tumor measurements were performed once every 2 days. Tumor volume was calculated using the following equation: V = L(S2)π/6, where L is the longer and S is the shorter of the two tumor dimensions.

PKM2 [2] = target: T1, PKM2 (Homo sapiens, UniProt P14618); assay: fluorescent pyruvate kinase-lactate dehydrogenase (PK-LDH) coupled assay, PKM2; format: biochemical; design: His-tag (N); made in house; host or cells: Escherichia coli BL21; conditions: for selectivity for PKM2 over PKM1 and PKL: Supplementary Figure S4c
T1 sequence (P14618 whole entry): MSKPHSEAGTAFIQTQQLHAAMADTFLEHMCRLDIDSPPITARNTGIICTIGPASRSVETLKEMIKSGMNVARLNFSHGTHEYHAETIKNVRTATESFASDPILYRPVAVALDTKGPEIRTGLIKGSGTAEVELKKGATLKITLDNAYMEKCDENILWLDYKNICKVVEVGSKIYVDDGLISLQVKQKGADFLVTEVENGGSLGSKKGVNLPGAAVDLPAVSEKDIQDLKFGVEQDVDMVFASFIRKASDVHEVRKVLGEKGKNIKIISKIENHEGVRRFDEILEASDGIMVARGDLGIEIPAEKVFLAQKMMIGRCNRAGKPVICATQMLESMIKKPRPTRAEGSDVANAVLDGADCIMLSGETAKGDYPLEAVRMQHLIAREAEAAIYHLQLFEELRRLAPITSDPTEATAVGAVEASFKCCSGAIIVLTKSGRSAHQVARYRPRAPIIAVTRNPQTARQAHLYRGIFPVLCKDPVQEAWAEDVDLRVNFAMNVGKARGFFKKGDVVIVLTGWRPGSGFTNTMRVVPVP
Method: A random screening of an in-house small molecule library (~1000 total molecules) was undertaken to identify new PKM2 modulators, which can block the interaction of PKM2 and VDAC3. The activity of these test compounds was assessed with a fluorescent PK-LDH coupled assay by a previously reported method (Supplementary Figure S4a)[37]. […] We undertook structural optimization by chemical modification. We designed new compounds utilizing a methyl group instead of the NP-1 chlorine moiety. Synthesis of target compounds was carried out according to the six-step protocol outlined in Supplementary Figure S4d, which was based on a previously described procedure[39],[40].
(§1) Human cDNA for PKM2, PKM1, and VDAC3 were separately cloned into a pET28a (+) and pGEX-4T-1 vector with an N-terminal His-tag and N-terminal GST-tag and purified from the Escherichia coli strain BL21 (Invitrogen) using Ni–agarose beads and GST agarose beads (Qiagen) as described previously. PKL was purchased from Sino Biological Inc. in China.
Pyruvate kinase activity was measured with a fluorescent pyruvate kinase–lactate dehydrogenase coupled assay as described previously. All compounds were tested in a kinetic mode by coupling the generation of pyruvate by pyruvate kinase to the depletion of NADH through lactate dehydrogenase. For PKM2, 40 μL of buffer (50 mM Tris–HCl, pH 7.5, 10 mM KCl, 5 mM MgCl2), 1 μL of compound and 5 μL of enzyme solution were dispensed into Corning black solid 96-well plates and incubated for 15 min. Totally, 55 μL of substrate mix (final concentration, 0.5 mM PEP, 4.0 mM ADP, 0.12 mM NADH, 0.25 mM FBP, and 1 unit LDH) were then added, and the plates were placed in a FlexStation3 (Molecular Devices), followed by determination of NADH fluorescence at 30 s exposure intervals for 3–6 min. Data were collected on a FlexStation3.

PKM2 [3] = target: T1, PKM2; assay: binding to PKM2 measured by MicroCal iTC200; design: His-tag (N); made in house; host or cells: Escherichia coli BL21
From the text: We tested modifications of target compounds for PKM2 inhibitory activity.
Fig. 5 Identification and characterization of PKM2 inhibitors. a PKM2 inhibitors. […] It prints only the data set name 'Data: pkm2_NDH', so the substance label is left empty. / Panel b, N: small print, 0.941 ±0.0712, digits uncertain / Panel b, K: small print, 8.63E4 ±3.63E4, the digits 8, 6 and 3 are uncertain / Panel b, ΔH: small print, -5962 ±675.9, the digits 5, 9 and 6 are uncertain / Panel b, ΔS: small print, 2.59, the digits 5 and 9 are uncertain
as §1

## CCCN(CCC)P(N)(=O)OCC1=CC(=O)c2ccccc2C1=O (stereo not drawn) [Compound 8]
MCF7 cells; Homo sapiens, MCF7, 48 h
  IC50: ~5 µM
MCF7 cells
  IC50: 5.4 ± 1.14 µM
[1]
  rate of NADH oxidation in purified mitochondria: reduced
HCT116 xenografts
  colon cancer xenograft growth (tumor volume): significantly reduced
PKM2 [2]
  selectivity for PKM2 over PKM1 and PKL: markedly inhibited PKM2, but inhibited PKM1 and PKL to much smaller extent
PKM2 [2]; listed as compound 8
  selectivity for PKM2 over PKM1 and PKL: PKM2 inhibitor of high selectivity
PKM2 [2]; ratio of IC50 values of Table 1
  IC50 on PKM2 relative to NP-1: about threefold lower than that of NP-1
PKM2 [2]; recombinant enzyme, PK-LDH coupled assay, 15 min preincubation, read-out: IC50 (PKM2)
  IC50: 0.77 ± 0.3 µM
PKM2 [3]
  Kd: ~11 µM
